Measured values as given in patent US20070014721A1, “Hydrazide conjugates as imaging agents” (priority 2005, published 2007).
Like-named read-outs stand apart in the source and are kept apart here. *1 amine or outer side, *2 acyl side, *3 side chain or, on linkers, in order; H or OH if unused. Where a SMILES comes first, the peptide text is derived from it. [ ]: non-standard residue; d: D form. The star is where a group is joined. PABC = O=C(OCc1ccc(N[*:1])cc1)[*:2]; X1 = CC(=O)NCCCCCC(=O)NN*; Boc = CC(C)(C)OC(=O)*; Nlys = NCCCCNCC(=O)O

Legend:
Aminopeptidase N = Aminopeptidase N (Homo sapiens, UniProt P15144); test: Aminopeptidase N cleavage of test substrates; format: biochemical; conditions: Boc removed from N-terminus before assay; 0.5 mM test substrate, 0.02 U APN, 37° C, 25 minutes
Protocol: The test compounds were dissolved in 50:50 TFA:dichloromethane and allowed to stand at ambient temperature under nitrogen for 10 minutes to remove the Boc protecting group from the N-terminus amino acid. The solutions were concentrated and the resulting oily residue was dissolved in 50:50 acetonitrile:water and lyophilized. The resulting flocculent solids were used directly in the APN assay.
Aminopeptidase N cleaves amino acids at the N-terminus of proteins and peptides attached to another amino acid. A stock solution of test substrates was prepared in 100% DMSO at a concentration of 8 mM. The stock solution (4.7 μL) was added to buffer (50 mM Hepes/pH 7.5, 10 mM CaCl2, 0.1% Brij) for a final concentration of 0.5 mM test substrate in the reaction. To this reaction solution 0.02 U of the enzyme (APN) was added, the solution was mixed, and immediately 30 μL of the mix was transferred to HPLC vials containing acetic acid (15 μL) for t=0 minutes measurement. The rest of the mix in the test tube was incubated at 37° C. for 25 minutes. At the 25 minutes time point 30 μL of the mix was transferred to an HPLC vial containing acetic acid (15 μl) for the t=25 minute measurement. The test substrates and products were separated by reversed phase HPLC on a Zorbax SB-C18 column (4.6×150 mm, 5 micron) using a water:acetonitrile gradient containing 0.1% TFA at a flow rate of 1.0 mL/min and with UV detection. The peak areas were integrated and the substrate peak area was used to determine rate constant k in the following equation: K={(% hydrolyzed/100)*[S]}/[E]*[time] where S=test substrate concentration in μmoles
E=aminopeptidase N concentration in units/ml
K=μmoles of substrate hydrolyzed/minute/unit enzyme

[1] = tested on: Rabbit plaque aorta or normal rabbit aorta; test: Ex vivo blood vessel binding assay; set-up: species or system New Zealand white rabbits; conditions: radiolabeled compound incubated with rabbit aorta (0.5 cm) in phosphate buffered saline for 2 hours at 37° C; bound compound as percentage of the incubated compound
Excerpt: Normal aorta was obtained from New Zealand white rabbits. Aorta bearing atherosclerotic plaque was obtained from New Zealand white rabbits balloon stripped along the abdominal aorta and placed on a high fat diet (0.5% cholesterol) for 16-22 weeks. Vascular injury was produced with a 3-F Fogarty catheter along the abdominal aorta and left iliofemoral artery. This procedure generates an accelerated complex lesion development with a lipid rich core covered by a fibrous cap in rabbits. Rabbit plaque aorta or normal rabbit aorta (0.5 cm) was incubated with 10 nCi of ^14C labeled compound or 1.5 μCi of ^99m Tc labeled compound or 0.135 μCi of ^111In labeled compound or 0.135 μCi of ^68Ga labeled compound or 0.135 µCi of ^153Gd labeled compound diluted in phosphate buffered saline (450 μL) for 2 hours at 37° C. The supernatant from this sample was collected and analyzed by HPLC to determine compound stability in presence of blood vessels. The blood vessel tissue was then washed with phosphate buffered saline (3×10 mL). Phosphate buffered saline (10 ml) was added to the tissue and incubated at 37° C. for 1 hour. The tissue was then washed with phosphate buffered saline (3×10 mL). The washed tissue was oxidized in a tissue oxidizer for C-14 labeled compounds. The counts in the oxidized tissue were determined on a beta counter. Blood vessels incubated with ^99m Tc labeled compound or ^111In labeled compound or ^68Ga labeled compound or ^153Gd labeled compound were counted on a gamma counter. The amount of compound bound to the tissue was determined as a percentage of the incubated compound. This was calculated using the following formula: [formula]

[2] = tested on: aorta of apolipoprotein E (apoE) knockout mouse; conditions: in vivo
Protocol: (§1) Mice were fed a high-fat diet to accelerate plaque formation and compounds were tested in the mice between 37-41 weeks on diet. Test compounds were radiolabeled (^14C, ^99mTc, or ^111In as described above) and administered at 0.02-4.0 mCi/kg to anesthetized mice in a single, bolus injection via the tail vein. Blood samples were collected via the tail between 0-30 minutes postinjection for pharmacokinetic analysis and mice were euthanized by CO2 at 60 minutes for tissue harvesting. The aorta were flushed with saline through the left ventricle exiting via the femoral vein. The aorta were then removed from the heart to the renal bifurcation and additional tissue samples collected (blood, muscle, liver, kidney, heart, lung, spleen and innominate artery). All samples were weighed and assayed for radioactivity. Tissue uptake is expressed as percent of injected dose per gram of tissue (% ID/g). The aorta to blood ratios were calculated from the % ID/g data.

[3] = tested on: aorta of atherosclerotic rabbit model; conditions: in vivo
Protocol: (§2) Atherosclerosis was induced in New Zealand White male rabbits (3 kg) with aortic balloon endothelial injury followed by feeding a 0.5% cholesterol diet for 22 weeks. Test compounds were radiolabeled(^14C, ^99mTc, or ^111In as described above) and administered at 0.02-1.0 mCi/kg to anesthetized rabbits in a single, bolus injection vis the marginal ear vein. Blood samples were collected from the central ear artery at 0, 2, 5, 7, 10, 15, 30, and 60 minutes post injection. Rabbits were euthanized at 60 minutes post injection for tissue harvesting (blood, muscle, bile, urine, kidney, liver, spleen, heart, lung, colon, small intestine, stomach, testes). Abdominal aorta (upper, middle, and lower) and left and right femoral arteries were collected. Both plaque bearing and non-plaque bearing rabbits were administered compounds to compare aorta uptake. All samples were weighed and assayed for radioactivity. Tissue uptake is expressed as percent of injected dose per gram of tissue (% ID/g). The aorta to blood ratios were calculated from the % ID/g data.

[4] = tested on: aorta of apolipoprotein E (apoE) knockout mouse; test: In vivo ApoE mouse aorta uptake study; conditions: 60 min postinjection; for Aorta (% ID/g): ApoE mouse on high-fat diet 37-41 weeks, tail vein bolus; for Aorta/Blood Ratio: ApoE mouse, calculated from the % ID/g data
Protocol: as §1

[5] = tested on: aorta of atherosclerotic rabbit model; test: In vivo rabbit aorta uptake study, atherosclerotic (plaque) rabbit; conditions: 60 minutes postinjection; for Aorta/Blood (Plaque Rabbit): calculated from the % ID/g data; for Aorta Uptake, % ID/g (Plaque Rabbit): marginal ear vein bolus
Protocol: as §2

[6] = tested on: aorta of normal (non-plaque bearing) rabbit; test: In vivo rabbit aorta uptake study, normal rabbit; set-up: species or system New Zealand White male rabbits; conditions: 60 minutes postinjection; for Aorta/Blood (Normal Rabbit): calculated from the % ID/g data; for Aorta Uptake, % ID/g (Normal Rabbit): marginal ear vein bolus
Excerpt: All samples were weighed and assayed for radioactivity.

Aminopeptidase N, sequence (P15144 whole entry, species assumed): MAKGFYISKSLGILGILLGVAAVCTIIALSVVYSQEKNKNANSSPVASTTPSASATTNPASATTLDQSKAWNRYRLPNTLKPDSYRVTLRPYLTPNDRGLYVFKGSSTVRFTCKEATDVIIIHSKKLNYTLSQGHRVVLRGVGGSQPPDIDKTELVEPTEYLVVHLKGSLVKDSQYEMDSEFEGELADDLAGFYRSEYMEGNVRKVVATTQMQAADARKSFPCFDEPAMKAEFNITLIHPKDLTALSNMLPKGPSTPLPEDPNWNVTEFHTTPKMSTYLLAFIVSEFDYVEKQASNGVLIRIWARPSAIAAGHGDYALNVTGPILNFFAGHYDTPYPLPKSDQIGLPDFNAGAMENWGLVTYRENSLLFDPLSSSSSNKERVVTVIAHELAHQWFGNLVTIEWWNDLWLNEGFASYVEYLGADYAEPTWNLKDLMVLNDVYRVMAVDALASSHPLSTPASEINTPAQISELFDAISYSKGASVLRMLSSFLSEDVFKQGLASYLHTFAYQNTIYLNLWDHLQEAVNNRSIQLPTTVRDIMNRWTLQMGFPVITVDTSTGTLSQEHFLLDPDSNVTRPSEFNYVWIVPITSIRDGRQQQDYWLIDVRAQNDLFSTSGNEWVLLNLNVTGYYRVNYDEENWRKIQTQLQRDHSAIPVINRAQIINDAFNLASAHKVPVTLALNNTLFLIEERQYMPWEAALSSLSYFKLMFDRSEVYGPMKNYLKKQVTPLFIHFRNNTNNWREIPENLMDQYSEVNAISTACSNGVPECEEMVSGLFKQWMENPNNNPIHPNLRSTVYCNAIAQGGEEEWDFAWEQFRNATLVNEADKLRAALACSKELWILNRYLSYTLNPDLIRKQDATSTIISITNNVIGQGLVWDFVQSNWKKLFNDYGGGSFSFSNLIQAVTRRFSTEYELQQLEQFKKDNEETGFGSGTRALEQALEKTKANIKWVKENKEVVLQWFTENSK

Compound	Rate of APN Hydrolysis of Test Substrates (Aminopeptidase N) [μmoles/minute/U]	Tissue Binding % [1] [%]	Aorta/Blood Ratio [2]	Aorta/Blood (Plaque Rabbit) [3]	Aorta (% ID/g) [4] [% ID/g]	Aorta/Blood Ratio [4]	Aorta/Blood (Plaque Rabbit) [5]	Aorta Uptake, % ID/g (Plaque Rabbit) [5] [% ID/g]	Aorta/Blood (Normal Rabbit) [6]	Aorta Uptake, % ID/g (Normal Rabbit) [6] [% ID/g]
CC(C)C[C@H](NC(=O)OC(C)(C)C)C(=O)Nc1ccc(COC(=O)N[C@H](CC(C)C)C(=O)NNC(=O)CCCCCN)cc1.O=C(O)C(F)(F)F [Example 13, N-((2R)-2-{[(4-{(2S)-2-[(tert-Butoxy)carbonylamino]-4-methylpentanoylamino}phenyl)methoxy]carbonylamino}-4-methylpentanoylamino)-6-aminohexanamide, Trifluoroacetic Acid Salt]	0.33	–	–	–	–	–	–	–	–	–
CC(C)C[C@H](NC(=O)OC(C)(C)C)C(=O)N[C@H](CC(C)C)C(=O)NNC(=O)CCCCCN.O=C(O)C(F)(F)F [Example 80, N-((2R)-2-{(2S)-2-[(tert-Butoxy)carbonylamino]-4-methylpentanoylamino}-4-methylpentanoylamino)-6-aminohexanamide, Trifluoroacetic Acid Salt]	0.00	–	–	–	–	–	–	–	–	–
CC(C)C[C@H](NC(=O)OC(C)(C)C)C(=O)Nc1ccc(C[C@@H](NC(=O)OC(C)(C)C)C(=O)NNC(=O)CCCCCN)cc1.O=CO [Example 83, N-[(2R)-3-(4-{(2S)-2-[(tert-Butoxy)carbonylamino]-4-methylpentanoylamino}phenyl)-2-[(tert-butoxy)carbonylamino]propanoylamino]-6-aminohexanamide, Formic Acid Salt]	0.43	–	–	–	–	–	–	–	–	–
CC(=O)NCCCCCC(=O)NNC(=O)[C@@H](CC(C)C)NC(=O)OCc1ccc(NC(=O)[C@H](CC(C)C)NC(=O)[C@H](CC(C)C)NC(=O)CN(CCCCNC(=O)OC(C)(C)C)C(=O)[C@H](CC(C)C)NC(=O)[C@@H]2CCCN2C(C)=O)cc1 [Example 128, Ac-PL-NLys(Boc)˜LL-PABA-CO-d-Leu-Ahxh-H] (Ac-PL[Nlys](Boc)LL[PABC][dL]-X1)	–	5.77	2.3	1.93	–	–	–	–	–	–
Boc-d-Leu-Ahxh-H [Example 120]	–	14.09	–	–	8.9	2.2	3.98	0.088	–	–
Boc-d-Leu-Inph-H [Example 139]	–	18.36	–	–	17.2	5.0	2.92	0.096	–	–
Boc-d-Phe[p-(Ac-PL-NLys(Boc)˜Hphe-L-NH)]-Ahxh-H [Example 147]	–	44.73	8.8	9.05	–	–	–	–	–	–
H-d-1-Nal-Ambh-DTPA [Example 183]	–	24.41	–	–	15.7	11.7	–	–	4.72	0.146
H-d-Hphe-Ambh-DTPA [Example 203]	–	17.96	–	–	12.9	8.7	2.76	0.127	4.78	0.129
H-d-Leu-Ahxh-Apa-DOTA [Example 215]	–	11.54	–	–	–	–	1.31	0.092	–	–
H-d-Leu-Ahxh-DOTA [Example 155]	–	3.49	–	–	5.1	2.0	1.67	0.080	2.21	0.065
H-d-Leu-Apah-Ahx-DTPA [Example 176]	–	25.21	–	–	12.2	13.3	–	–	4.95	0.123
H-d-Leu-Apah-DTPA [Example 159]	–	10.10	–	–	9.5	3.0	4.08	0.083	–	–
H-d-Leu-Apph-DTPA [Example 171]	–	16.56	–	–	6.7	8.8	2.89	0.168	4.49	0.143
H-d-Phe-Apah-DTPA [Example 164]	–	13.88	–	–	8.2	7.5	3.56	0.085	–	–
H-d-Phe-Apph-Ahx-DTPA [Example 182]	–	12.02	–	–	11.0	4.5	–	–	–	–
H-d-Phe-Apph-DTPA [Example 174]	–	17.15	–	–	8.7	11.0	–	–	5.42	0.111
H-d-Phe-Bbh-DTPA [Example 209]	–	20.9	–	–	10.8	9.6	–	–	–	–
H-d-Phe-NHNH-DTPA [Example 192]	–	1.78	–	–	2.3	1.9	–	–	–	–
H-d-Phe-XInph-DTPA [Example 202]	–	5.44	–	–	4.3	4.0	–	–	–	–
H-d-Ser(Bzl)-Ahxh-DTPA [Example 166]	–	5.91	–	–	4.0	3.3	–	–	–	–
H-d-Stya-Ambh-DTPA [Example 187]	–	13.66	–	–	6.1	5.4	–	–	–	–
H-d-Tic-Apah-DTPA [Example 178]	–	6.00	–	–	8.3	4.2	–	–	–	–
H-d-Trp-Ambh-DTPA [Example 208]	–	14.91	–	–	14.8	8.7	–	–	5.58	0.135
H-d-Trp-Apph-ETPA [Example 184]	–	13.08	–	–	12.5	11.3	–	–	–	–
H-d-Tyr(Bzl)-Ambh-DTPA [Example 206]	–	19.62	–	–	5.8	3.2	–	–	–	–
H-d-Tyr(Et)-Apah-DTPA [Example 169]	–	13.53	–	–	6.1	5.1	–	–	–	–
H-d-Val-Ahxh-DTPA [Example 191]	–	3.02	–	–	5.3	1.5	–	–	–	–
[H-d-Cys(Bzl)-Apph]2EDTA[APEEPA-DTPA]2 [Example 186]	–	7.78	–	–	7.0	1.5	–	–	–	–
